Where “and” joins values, the source holds several entries; their conditions need not be identical. Equal entries are not always repeated.

For series [1], the system named is carboplatin-DNA adducts in BL0293 tumors. Put plainly: carboplatin-DNA adduct formation in vivo (accelerator mass spectrometry). The settings on record: carboplatin alone; 24 hours after carboplatin.
Excerpt: (§6) Accelerator mass spectrometry to determine platinum-DNA adduct formation.
DNA was extracted using a Promega Wizard genomic DNA purification kit according to manufacturer's instructions. Ten micrograms of DNA per sample was submitted to Lawrence Livermore National Laboratory (LLNL) for AMS analysis using previously reported protocol (25).
Series [2] deals with carboplatin-DNA adducts in 5637 bladder cancer cell line. Nature of the series: carboplatin-DNA adduct formation in vitro (accelerator mass spectrometry).
Description: as §6
Cells were harvested at the 4 hr time point in one group of dishes and another group was washed and further incubated for 20 hr with fresh drug-free medium before cell harvest in order to determine DNA repair. Cell pellets were stored at −80° C. until DNA extraction.
Series [3] concerns bladder cancer PDX BL0293. Put plainly: tumor growth and survival in NSG-PDX bladder cancer mouse model BL0293. The format is in vivo, NSG mice. The settings on record: for anti-tumor activity, single agent: mice bearing BL0293 tumors. The protocol:
(§1) Materials and Supplies. Bladder cancer subject-derived xenograft (PDX) models were provided by The Jackson Laboratory (JAX, Bar Harbor, Me.). […] All experiments utilized PDX models within the first five passages. […] Gemcitabine was purchased from LC Laboratories (Woburn, Mass.). […] The cell lines have not been tested and authenticated by the authors.
(§2) PDX bladder cancer. NSG PDX studies were performed at the University of California Davis with IACUC approval. […] Gemcitabine was dissolved in 0.9% saline and administered at a dose of 150 mg/kg (IP, weekly) for 4 weeks. Animal weight and tumor size were measured twice per week. […] The percentage of tumor growth inhibition (TGI) was calculated as follows; 100%×(1−[(V^treated(final day)−V^treated(initial day))/(V^control(final day)−V^control(initial day))]), where V is tumor volume.
(§3) Statistics. Data are presented as mean±standard error of the mean (SEM) or mean±standard deviation (SD). Group comparisons were carried out using one-way analysis of variance or Student's t test. Survival analysis was performed using the Kaplan-Meier method. A p value of less than 0.05 was considered statistically significant.

Series [4] concerns bladder cancer PDX BL0269. Nature of the series: tumor growth in NSG-PDX bladder cancer mouse model BL0269. The format is in vivo, NSG mice. The protocol: as §1, §2, §3
Series [5] relates to p-ERK and p-AKT. Nature of the series: Western blot of PDX BL0293 tumor tissue. The class given is in vivo, NSG mice. Particulars: day 3; BL0293 tumors. As for the experimental part:
(§4) Blood samples from mice were collected and analyzed for complete blood count (CBC), blood urea nitrogen (BUN), aspartate aminotransferase (AST), creatinine and total bilirubin at the Veterinary Medicine Comparative Pathology Laboratory of University of California Davis. The tumor, heart, liver, spleen, lung and kidney were harvested and the tissue samples were fixed in formalin or frozen at −80° C. Tumor sections were stained with hematoxylin and eosin (H&E) or were used for immunohistochemistry analysis. A board-certified pathologist provided detailed interpretation of tumor histomorphology and scoring of immunohistochemical staining. Some of the tumor sections were lysed and chromatographed using SDS-PAGE followed by transfer onto a PVDF membrane. […] The membranes were then probed with horseradish peroxidase (HRP) tagged secondary antibodies and epitopes were detected using the ECL Plus Western Blotting Detection Reagent (GE Healthcare, Piscataway, N.J.). Cell proliferation and apoptosis assessed with Ki-67 and cleaved caspase-3 antibodies (Cell Signaling, Danvers, Mass.) using an immunohistochemistry kit per the manufacturer's instructions (BioGenex, Fremont, Calif.).
A general note: A western blot detects proteins with antibodies after separation by electrophoresis.

The test system of series [6] is 5637 bladder cancer cells. Nature of the series: 72 hr cell viability assay (MTS) and combination index, 5637. The format is cell-based, human. Particulars: for IC50: single drug, 72 hr. As for the experimental part:
(§5) Median effect analysis to determine in vitro drug-drug interaction. […] PTUPB was dissolved in dimethyl sulfoxide (DMSO) to a final stock concentration of 10 mM. […] Cells were seeded at 2,000-3,000 cells and 100 μl of medium per well into 96-well plates (Becton Dickinson, Franklin Lakes, N.J.), and incubated overnight. Different concentrations of these two drugs were diluted in culture media and added to each well. The plates were then incubated for an additional 72 hours. The control group was dosed with 0.2% DMSO. Cell viability assays (MTS) were performed according to the manufacturer's protocol (Promega, Madison, Wis.). […] Dose-response curves were generated with GraphPad Prism 5 software (GraphPad Software Inc., La Jolla, Calif.). The combination indices (CI) were determined based on the method of Chou et al (26). CI values were calculated with CompuSyn software (http://www.combosyn.com/).

Series [7] relates to COX-1. Nature of the series: COX-1 inhibitory activity (Table 3). The arrangement: dose or concentration left out as unconfirmed. The class given is biochemical.
For series [8], the system named is bladder cancer PDX BL0808. Put plainly: gemcitabine combination in bladder cancer PDX BL0808. The class given is in vivo. As for the experimental part:
PDX BL0808 was implanted into immunodeficient nod scid gamma (NSG) mice and treatment was started once tumor volume reached approximately 250 mm^3. Treatment consisted of either vehicle (5 μL/g PEG300, p.o., once daily until end of study), PTUPB (30 mg/kg in PEG300, p.o., once daily until end of study), gemcitabine (150 mg/kg in WFI, IP, once weekly, 4 times) or a combination of PTUPB with gemcitabine. Tumor volume and animal weight was monitored every other day and mice were sacrificed once tumor size reached 2 cm and tumor specific survival was recorded.

Series [9] can be described thus: toxicity in PDX-bearing mice (body weight, blood counts, chemistry, histology of major organs). The arrangement: species or system NSG mice. The settings on record: mouse, in vivo. As for the experimental part:
as §2
as §4, with “C.” for “C. Tumor sections were stained with hematoxylin and eosin (H&E) or were used for immunohistochemistry analysis. A board-certified pathologist provided detailed interpretation of tumor histomorphology and scoring of immunohistochemical staining. Some of the tumor sections were lysed and chromatographed using SDS-PAGE followed by transfer onto a PVDF membrane.”

Series [10] relates to J82 bladder cancer cell line. Nature of the series: 72 hr cell viability assay (MTS), J82. The class given is cell-based, human. Particulars: PTUPB 1, 2, 5, 10 μM. As for the experimental part: as §5
Series [11] concerns TCCSUP bladder cancer cell line. Put plainly: 72 hr cell viability assay (MTS), TCCSUP. The format is cell-based, human. Particulars: PTUPB 1, 2, 5, 10 μM. The protocol: as §5
The test system of series [12] is T24 bladder cancer cell line. Put plainly: 72 hr cell viability assay (MTS), T24. The format is cell-based, human. Particulars: PTUPB 1, 2, 5, 10 μM. As for the experimental part:
as §5

The test system of series [13] is COX-2 and sEH pathways. Put plainly: oxylipin profile analysis (LC-MS/MS) of tumor tissue. The format is in vivo, NSG mice. As for the experimental part:
Oxylipin profile analysis. Lipid extraction and analysis was performed as previously reported (20). Briefly, for tumor lipid mediator extraction, ˜100 mg of tumor tissues was mixed with an antioxidant solution (0.2 mg/mL butylated hydroxytoluene and 0.2 mg/mL triphenylphosphine in methanol), the surrogate solution, and 400 μL of extract solution (0.1% acetic acid with 0.2 mg/mL butylated hydroxytoluene in methanol), and then homogenized. The resulting homogenates were kept overnight at −80° C. Next day, the homogenates were centrifuged and supernatants were collected. The pellets were washed with 0.1% butylated hydroxytoluene and 0.1% acetic acid in methanol and the supernatants were collected and combined. LC-MS/MS analysis of the extracts were carried out on an Agilent 1200SL liquid chromatographic system coupled to a 4000 QTRAP MS/MS instrument (AB Sciex) as described (29).

The mark [14] stands for this setting: BL0293, PTUPB 30 mg/kg orally once daily, cisplatin 2 mg/kg i.v.

Consider carboplatin, for which the “carboplatin-DNA adduct levels in tumor DNA” value in [1] worked out at 1070±317 adducts/10^8 nt. Also, in [2] (5637 cells), the DNA repair rate was 21.2 +/−1.3 adducts/10^8 nt per hour. Also, the platinum-DNA adduct formation in series [2] (after 4h, carboplatin 100 μM, PTUPB 10 μM simultaneously) is recorded as 528±41 adducts per 10^8 nt. Further, the platinum-DNA adduct levels in series [2] (at 24 hours (4 hours drug, 20 hours drug-free medium)) was 104.1 +/−17.7 adducts/10^8 nt. For the same molecule, in [2] (pretreatment with 10 μM PTUPB for 5 hours, then carboplatin), the “carboplatin induced DNA adduct formation” value is reported as 706 +/−26 adducts per 10^8 nt.
As usually defined, the IC50 is the point on the concentration scale where inhibition reaches its midpoint. In the case of `N.N.[Cl][Pt][Cl]` [cisplatin, reference compound], in [3] (setting [14]), the overall survival was 47.0 days and 47 days. Moreover, in [3], the “anti-tumor activity, single agent” value is “moderate anti-tumor activity”. In addition, the tumor growth entry in series [4] is given as “resistant”. The “levels of p-ERK and p-AKT” value in [5] is given as “did not significantly diminish”. Besides, the IC50 in series [6] amounted to 4.5 µM.
Consider `NS(=O)(=O)c1ccc(-n2nc(CCCNC(=O)Nc3ccc(C(F)(F)F)cc3)cc2-c2ccccc2)cc1` [PTUPB, 4-(5-phenyl-3-{3-[3-(4-trifluoromethyl-phenyl)-ureido]-propyl}-pyrazol-1-yl)-benzenesulfonamide], for which, in series [7], the “COX-1 (% inhibition)” value is given as 22.7%. Besides, in series [3] (setting [14]), the “median time to a […] increase in tumor volume” value came out at 24.4 days and the overall survival worked out at 39.4 days. The “anti-tumor activity, single agent” value in series [3] is reported as “moderate anti-tumor activity”. The “inhibition of tumor growth on addition to GC (gemcitabine and cisplatin)” value in series [4] (PTUPB 30 mg/kg, cisplatin 2 mg/kg, gemcitabine 150 mg/kg) is “best inhibition of tumor growth”. Besides, the “potentiation of cisplatin with respect to inhibiting tumor growth” value in series [4] (combined with cisplatin 2 mg/kg) was “best and most statistically significant potentiation”. Moreover, the “gemcitabine chemotherapy efficacy (tumor volume)” value in series [8] (PTUPB 30 mg/kg p.o. with gemcitabine 150 mg/kg IP) is listed as “extends gemcitabine chemotherapy efficacy”. Further, in [8] (PTUPB with gemcitabine), the “gemcitabine toxicity (animal weight)” value is reported as “does not increase gemcitabine toxicity” and the tumor specific survival entry was “increases tumor specific survival”. Besides, in series [9], the body weight change entry was “slightly decreased body weight” and the “histology examination of major organs” value is listed as “no such morphology changes were observed”. The “levels of p-ERK and p-AKT” value in series [5] was “did not significantly diminish”. Further, the IC50 in series [6] (Homo sapiens) was 90.4 µM. Moreover, in series [6] (PTUPB 1, 2, 5 and 10 μM with cisplatin at 5 μM), the “drug-drug interaction with cisplatin (combination index)” value was “modest synergistic effects”. Moreover, the “effect on cisplatin cytotoxicity” value in [10] is “did not increase cisplatin cytotoxicity”. The “effect on cisplatin cytotoxicity” value in series [11] was “did not increase cisplatin cytotoxicity”. In addition, in series [12], the “effect on cisplatin cytotoxicity” value is listed as “did not increase cisplatin cytotoxicity”. Also, in series [13] (BL0269 tumors), the “effect on diol metabolites 10,11-DiHDPE and 15,16-DiHODE” value is “no effect”; the “increase of 10,11-EpDPE, 15,16-EpODE” value is on record as “approximately two-fold increase”. Besides, the “reduction of levels of prostaglandins PGE2, PGD2, TXB2, 6-keto-PGF1α in tumor” value in [13] (mouse, in vivo) is given as about 50%. Moreover, in [13] (tumor), the “decrease of diol metabolite 12,13-DiHOME” value is on record as about 2 fold and the “increase of 12,13-EpOME” value was “approximately two-fold increase”.

The values above are taken from patent publication US11426385B2, “Methods of improving cancer chemotherapy” (THE REGENTS OF THE UNIVERSITY OF CALIFORNIA, priority 2017, dated 2022).
